{
  "source": "paper PMC9750858",
  "about": "“Rapid biosensor development using plant hormone receptors as reprogrammable scaffolds” (Nature Biotechnology, 2022)",
  "key": {"PYR1^4F [1]": {"molecular_target": "T1, PYR1^4F (Arabidopsis thaliana, UniProt O49686, A160G/F159V/H115Q/Y120G)", "T1 sequence (O49686 with tags, fused parts or gaps H115Q/Y120G/F159V/A160G)": "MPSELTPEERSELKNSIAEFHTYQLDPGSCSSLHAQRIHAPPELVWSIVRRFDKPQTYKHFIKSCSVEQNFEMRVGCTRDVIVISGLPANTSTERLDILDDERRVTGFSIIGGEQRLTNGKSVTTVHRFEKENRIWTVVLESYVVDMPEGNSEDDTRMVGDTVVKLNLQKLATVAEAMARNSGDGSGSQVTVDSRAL", "T1 sequence (Q9CAJ0 179-511 partner)": "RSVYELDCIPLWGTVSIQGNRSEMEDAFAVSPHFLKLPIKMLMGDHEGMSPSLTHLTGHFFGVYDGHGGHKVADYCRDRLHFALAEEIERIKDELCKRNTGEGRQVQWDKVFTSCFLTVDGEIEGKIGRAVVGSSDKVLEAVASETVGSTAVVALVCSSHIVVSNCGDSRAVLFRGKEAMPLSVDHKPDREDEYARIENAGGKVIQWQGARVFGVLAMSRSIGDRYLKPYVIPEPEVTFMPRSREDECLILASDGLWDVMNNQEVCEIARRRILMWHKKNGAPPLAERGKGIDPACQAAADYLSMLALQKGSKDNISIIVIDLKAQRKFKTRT", "assay": "Yeast transcriptional activation circuit Z4-PYR1/VP64-ΔN-HAB1, GFP reporter, PYR1^4F"}, "PYR1^WIN-M": {"molecular_target": "T2, PYR1^WIN-M (Arabidopsis thaliana, UniProt O49686, A160I/D26G/E4G/F159A/H60P/K59Q/N90S/Y23H)", "T2 construct": "made in house", "T2 sequence (O49686 with tags, fused parts or gaps E4G/Y23H/D26G/K59Q/H60P/N90S/F159A/A160I)": "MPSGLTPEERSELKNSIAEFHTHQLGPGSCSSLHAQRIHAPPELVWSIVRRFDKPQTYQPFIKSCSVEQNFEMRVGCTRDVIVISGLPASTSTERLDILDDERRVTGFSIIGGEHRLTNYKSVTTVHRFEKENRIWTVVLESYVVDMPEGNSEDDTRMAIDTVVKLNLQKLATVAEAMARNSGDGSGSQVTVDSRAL", "assay": "ELISA-like plate assay, immobilized PYR1^WIN-M, biotinylated ΔN-HAB1^T+", "type": "binding", "details": "replicates"}, "PYR1^4F / ΔN-HAB1": {"molecular_target": "T3, PYR1^4F / ΔN-HAB1 (Arabidopsis thaliana, UniProt O49686, A160G/F159V/H115Q/Y120G)", "T3 construct": "6xHis (N); made in house; host or cells: E. coli BL21 (DE3) pLysS", "T3 sequence (O49686 with tags, fused parts or gaps H115Q/Y120G/F159V/A160G)": "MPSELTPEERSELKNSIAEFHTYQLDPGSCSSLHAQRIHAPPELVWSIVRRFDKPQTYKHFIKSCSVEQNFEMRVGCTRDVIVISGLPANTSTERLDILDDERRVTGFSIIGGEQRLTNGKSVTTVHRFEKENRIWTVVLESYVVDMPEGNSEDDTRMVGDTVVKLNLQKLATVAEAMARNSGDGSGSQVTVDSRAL", "T3 sequence (Q9CAJ0 179-511 partner)": "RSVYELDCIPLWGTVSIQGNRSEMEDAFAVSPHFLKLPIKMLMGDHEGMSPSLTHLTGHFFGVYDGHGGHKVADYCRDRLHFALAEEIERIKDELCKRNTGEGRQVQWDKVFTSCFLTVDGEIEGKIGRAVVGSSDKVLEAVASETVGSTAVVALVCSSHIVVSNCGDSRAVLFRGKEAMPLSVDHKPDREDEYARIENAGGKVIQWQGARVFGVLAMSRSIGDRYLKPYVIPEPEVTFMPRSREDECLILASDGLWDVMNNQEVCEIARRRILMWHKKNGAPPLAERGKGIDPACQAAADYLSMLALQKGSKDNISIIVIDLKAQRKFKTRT", "assay": "Ligand/receptor-mediated PP2C (ΔN-HAB1 phosphatase) inhibition, PYR1^4F", "type": "biochemical", "procedure": "Coding sequences of the cannabinoid sensors were cloned into the protein expression vector pET28a to encode 6×His-tag-receptor fusions. Constructs were sequenced and transformed into the BL21 (DE3) pLysS E. coli strain for heterologous expression with IPTG (1 mM), followed by purification, using affinity chromatography, as previously reported. In vitro validation of evolved sensors was performed by using recombinant sensors and ΔN-HAB1 (HAB1 Δ1–178, ref. [36]) proteins, as previously described. […] Cannabinoid concentration curves ranged from 4 to 10,000 nM, and median inhibitory concentrations for PP2C inhibition were obtained via fluorescent measurement in the presence of 1 mM 4-methylumbelliferyl phosphate."}, "PYR1^4F [2]": {"molecular_target": "T1, PYR1^4F", "assay": "Split NanoLuc luciferase complementation in yeast, NLuc^N-PYR1^4F/NLuc^C-ΔN-HAB1", "type": "cell-based", "design": ">PYR1-4FMDMB; expressed in transfected cells; host or cells: Saccharomyces cerevisiae BY4742"}, "PYR1^M (H60P, N90S)": {"molecular_target": "T4, PYR1^M (H60P, N90S) (Arabidopsis thaliana, UniProt O49686, H60P/N90S)", "T4 construct": "made in house; host or cells: E. coli (pET derivatives)", "T4 sequence (O49686 1-191 H60P/N90S)": "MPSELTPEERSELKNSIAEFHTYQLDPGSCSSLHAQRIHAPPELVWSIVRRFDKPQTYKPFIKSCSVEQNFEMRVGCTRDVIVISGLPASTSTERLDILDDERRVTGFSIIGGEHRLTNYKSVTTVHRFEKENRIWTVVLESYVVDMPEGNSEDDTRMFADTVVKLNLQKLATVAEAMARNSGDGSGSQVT", "T4 sequence (Q9CAJ0 179-511 C186S/R199A/D204A/S209V/H248S/F260E/C274S/D287K/S292N/S342A/M358I/N377A/R422E/N439S/M483K partner)": "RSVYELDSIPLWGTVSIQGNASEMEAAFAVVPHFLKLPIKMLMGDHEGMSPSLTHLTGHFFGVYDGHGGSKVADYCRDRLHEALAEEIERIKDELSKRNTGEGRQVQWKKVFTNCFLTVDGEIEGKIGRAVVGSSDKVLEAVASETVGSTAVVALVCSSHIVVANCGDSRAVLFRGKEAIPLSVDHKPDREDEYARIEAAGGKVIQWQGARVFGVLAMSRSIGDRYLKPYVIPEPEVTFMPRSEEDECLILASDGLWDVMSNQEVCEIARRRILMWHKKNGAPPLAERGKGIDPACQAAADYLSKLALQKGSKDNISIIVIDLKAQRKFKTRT", "assay": "ELISA-like plate assay, immobilized PYR1^M, biotinylated ΔN-HAB1^T+, streptavidin-HRP", "type": "binding", "details": "for ELISA signal generation, positive control (source data): PYR1^M tested with ABA, replicates, listed as + CNTRL"}, "PYR1^DIAZI [3]": {"molecular_target": "T5, PYR1^DIAZI (Arabidopsis thaliana, UniProt O49686, A160V/E8G/F108Y/F159G/L87M/M158V/V81Y)", "T5 sequence (O49686 other isoform, or with tags, fused parts or gaps E8G/V81Y/L87M/F108Y/M158V/F159G/A160V, one chain of several)": "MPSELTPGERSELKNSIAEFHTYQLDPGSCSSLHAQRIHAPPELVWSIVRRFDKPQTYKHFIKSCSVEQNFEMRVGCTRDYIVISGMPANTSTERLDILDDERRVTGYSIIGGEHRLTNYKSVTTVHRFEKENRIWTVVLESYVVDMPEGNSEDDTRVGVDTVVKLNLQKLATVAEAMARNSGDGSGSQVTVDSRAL", "assay": "Yeast transcriptional activation circuit Z4-PYR1/VP64-ΔN-HAB1, GFP reporter, PYR1^DIAZI", "details": "read-out: EC50, yeast transcription circuit; PYR1^DIAZI, off-target ligand"}, "PYR1^DIAZI [4]": {"molecular_target": "T5, PYR1^DIAZI", "assay": "Split NanoLuc luciferase complementation in yeast, NLuc^N-PYR1^DIAZI/NLuc^C-HAB1", "type": "cell-based", "design": ">PYR1-DIAZI; expressed in transfected cells; host or cells: Saccharomyces cerevisiae BY4742", "details": "Figure 4f(top), 3 replicates"}},
  "note": "pEC50, pKd: −log10 of the molar value. Several values for one entry are separate records, joined by “and”; a condition that tells them apart may be missing. Identical values can stand only once.",
  "data": [
    {"smiles": "COC(=O)C(NC(=O)c1nn(CCCCF)c2ccccc12)C(C)(C)C", "note": "(stereo not drawn) [4F-MDMB, 4F-MDMB-BUTINACA]", "values": [
      {"measurement": "pEC50", "setting": "PYR1^4F [1]", "result": 7.64},
      {"measurement": "ELISA signal generation, receptor cross-reactivity (source data)", "setting": "PYR1^WIN-M; cannabinoid at 2 nM", "result": "0.813 and 0.154 and 0.125"},
      {"measurement": "ELISA signal generation, receptor cross-reactivity (source data)", "setting": "PYR1^WIN-M; cannabinoid at 2 μM", "result": "0.116 and 0.117 and 0.101"},
      {"measurement": "pEC50", "setting": "PYR1^4F / ΔN-HAB1", "result": 6.99},
      {"measurement": "pEC50", "setting": "PYR1^4F [2]", "result": 7.60}
    ]},
    {"smiles": "CC1=CC(=O)CC(C)(C)[C@@]1(O)/C=C/C(C)=C\\C(=O)O", "note": "[ABA, abscisic acid]", "values": [
      {"measurement": "ELISA signal generation, positive control (source data)", "setting": "PYR1^M (H60P, N90S); 2 nM", "result": "2.266 and 2.046 and 2.24"},
      {"measurement": "ELISA signal generation, positive control (source data)", "setting": "PYR1^M (H60P, N90S); 2 μM", "result": "3.553 and 3.555 and 3.41"},
      {"measurement": "Amax [AU 450 nm]", "setting": "PYR1^M (H60P, N90S); global fit, PYR1M/ABA/ΔN-HAB1T+ system, Biorep 1-3", "result": "2 AU 450 nm and 2.8 AU 450 nm"},
      {"measurement": "pKd", "setting": "PYR1^M (H60P, N90S); global fit, PYR1M/ABA/ΔN-HAB1T+ system, Biorep 1-3, read-out: KD1", "result": "6.09 and 6.11 and 5.68"}
    ]},
    {"smiles": "CCOP(=S)(OCC)SCn1nnc2ccccc2c1=O", "note": "[Azinphos-ethyl, azinphos-ethyl]", "values": [
      {"measurement": "pEC50", "setting": "PYR1^DIAZI [3]", "result": 5.96},
      {"measurement": "Sensor signal (Figure 4f top), replicate values", "setting": "PYR1^DIAZI [4]; [Agonist] 1e-5 nM", "result": "19.1784 and 9.602 and 15.5607"},
      {"measurement": "Sensor signal (Figure 4f top), replicate values", "setting": "PYR1^DIAZI [4]; [Agonist] 0.5 nM", "result": "28.6964 and 14.557 and 20.4786"},
      {"measurement": "Sensor signal (Figure 4f top), replicate values", "setting": "PYR1^DIAZI [4]; [Agonist] 1 nM", "result": "22.2741 and 20.8671 and 16.0353"},
      {"measurement": "Sensor signal (Figure 4f top), replicate values", "setting": "PYR1^DIAZI [4]; [Agonist] 10 nM", "result": "14.152 and 32.187 and 17.3809"},
      {"measurement": "Sensor signal (Figure 4f top), replicate values", "setting": "PYR1^DIAZI [4]; [Agonist] 100 nM", "result": "20.787 and 38.118 and 25.3718"},
      {"measurement": "Sensor signal (Figure 4f top), replicate values", "setting": "PYR1^DIAZI [4]; [Agonist] 1000 nM", "result": "52.3582 and 54.3696 and 50.5941"},
      {"measurement": "Sensor signal (Figure 4f top), replicate values", "setting": "PYR1^DIAZI [4]; [Agonist] 10000 nM", "result": "95.7293 and 70.2485 and 89.5341"},
      {"measurement": "Sensor signal (Figure 4f top), replicate values", "setting": "PYR1^DIAZI [4]; [Agonist] 100000 nM", "result": "109.007 and 68.7025 and 93.3077"}
    ]}
  ]
}
